Test results published in EP0514268A1, “Substituted amino acid azetidinyl pyridone derivatives, their preparation and use as medicines” (LABORATORIOS DEL DR. ESTEVE, S.A., priority 1991, dated 1992).

Experiments:
[1] = system: Citr. freundii ATCC 11606; experiment: Antimicrobial activity, agar dilution; format: cell-based, Citrobacter freundii; conditions: Citrobacter freundii, ATCC11606, 20 h, Agar Dextrose dilutions, 37°C, 20 heures, read-out: Activité pharmacologique antimicrobienne (concentrations)
Description: (§1) L'activité pharmacologique antimicrobienne de ces composés a été étudiée selon les références exposées ci-dessous.
(§2) Activité pharmacologique antimicrobienne : G.L. Daquet et Y.A. Chabbect, techniques en bactériologie, Vol. 3, Flammarion Médecine-Sciences, Paris 1972, et W.B. Hugo et A.D. Rusell, Pharmaceutical Microbiology, Blackwell Scientific Publications, London, 1977.
(§3) Milieu de culture et solvant : Agar d'antibiotiques n° 1 (Oxoid CM 327) Bouillon de triptone-soja (Oxoid CM 129) Solution Physiologique Ringer 1/4 (Oxoid BR 52) Agar Dextrose (BBL 11165)
(§4) Microorganismes : "Bacillus subtilis" ATCC 6633 "Citrobacter freundii" ATCC 112606 "Enterobacter aerogenes" ATCC 15038 "Enterobacter cloacae" ATCC 23355 "Bacillus cereus" ATCC 1178 "Escherichia coli" ATCC 10799 "Escherichia coli" ATCC 23559 "Klebsiella pneumoniae" ATCC 10031 "Proteus vulgaris" ATCC 8427 "Morg. morganii" ATCC 8019 "Pseudomonas aeruginosa" ATCC 9721 "Pseudomonas aeruginosa" ATCC 10145 "Salmonella typhimurium" ATCC 14028 "Salmonella typhimurium" ATCC 6539 "Serratia marcescens" ATCC 13880 "Shigella flexnerii" ATCC 12022 "Staphylococcusepidermis" ATCC 155-1 "Staphylococcus aureus" ATCC 25178 "Streptococcus faecalis" ATCC 10541.
(§5) Chacun des microorganismes est ensemencé par strie dans des tubes d'Agar d'antibiotiques n° 1, et mis en incubation pendant 20 heures à 37°C. Ensuite, on prend une anse de culture, on ensemence dans un bouillon de Triptone-soja et on incube pendant 20 heures à 37°C. On dilue à 1/4 la culture obtenue avec une solution physiologique Ringer, de façon à obtenir une suspension normalisée de […] pour chaque organisme.
(§6) A partir d'une solution de 100 µg/ml, chaque produit est dilué dans l'Agar Dextrose (préalablement fondu et maintenu à 50°C) par dilutions successives de façon à obtenir les concentrations suivantes : 64-32-16-8-4-2-1-0,5-0,25-0,125 µg de dérivé/ml du milieu.
(§7) Postérieurement, chaque concentration de chaque produit est répartie dans des boîtes de Petri de 10 cm de diamètre, à raison de 10 ml de milieu par boîte et autant de boîtes que de microorganismes à tester.
(§8) Une fois le milieu refroidi, les boîtes sont ensemencées avec les inoculations à raison de 0,4 ml d'inoculation par boîte. On les étend avec une anse de Driglasky et on recueille le surnageant. Les boîtes ensemencées sont incubées à 37°C pendant 20 heures.
(§9) Les résultats obtenus sont décrits dans les tableaux suivants. Les concentrations sont données en µg/ml.

[2] = system: Strep. faecalis ATCC 10541; experiment: Antimicrobial activity, agar dilution; format: cell-based, Streptococcus faecalis; conditions: Enterococcus faecalis, ATCC10541, 20 h, Agar Dextrose dilutions, 37°C, 20 heures, read-out: Activité pharmacologique antimicrobienne (concentrations)
Description: as §1, §2, §3, §4, §5, §6, §7, §8, §9

[3] = system: Ent. cloacae ATCC 23355; experiment: Antimicrobial activity, agar dilution; format: cell-based, Enterobacter cloacae; conditions: Enterobacter cloacae, ATCC23355, 20 h, Agar Dextrose dilutions, 37°C, 20 heures, read-out: Activité pharmacologique antimicrobienne (concentrations)
Description: as §1, §2, §3, §4, §5, §6, §7, §8, §9

[4] = system: Kleb. pneumoniae ATCC 10031; experiment: Antimicrobial activity, agar dilution; format: cell-based, Klebsiella pneumoniae; conditions: Klebsiella pneumoniae, ATCC10031, 20 h, Agar Dextrose dilutions, 37°C, 20 heures, read-out: Activité pharmacologique antimicrobienne (concentrations)
Description: as §1, §2, §3, §4, §5, §6, §7, §8, §9

[5] = system: Proteus vulgaris ATCC 8427; experiment: Antimicrobial activity, agar dilution; format: cell-based; conditions: Proteus vulgaris, ATCC8427, 20 h, Agar Dextrose dilutions, 37°C, 20 heures, read-out: Activité pharmacologique antimicrobienne (concentrations)
Description: as §1, §2, §3, §4, §5, §6, §7, §8, §9

[6] = system: Escherichia coli ATCC 23559; experiment: Antimicrobial activity, agar dilution; format: cell-based; conditions: Escherichia coli, ATCC23559, 20 h, Agar Dextrose dilutions, 37°C, 20 heures, read-out: Activité pharmacologique antimicrobienne (concentrations)
Description: as §1, §2, §3, §4, §5, §6, §7, §8, §9

[7] = system: Morg. morganii ATCC 8019; experiment: Antimicrobial activity, agar dilution; format: cell-based; conditions: Morganella morganii, ATCC8019, 20 h, Agar Dextrose dilutions, 37°C, 20 heures, read-out: Activité pharmacologique antimicrobienne (concentrations)
Description: as §1, §2, §3, §4, §5, §6, §7, §8, §9

[8] = system: Shigella flexnerii ATCC 12022; experiment: Antimicrobial activity, agar dilution; format: cell-based; conditions: ATCC12022, 20 h, Agar Dextrose dilutions, 37°C, 20 heures, read-out: Activité pharmacologique antimicrobienne (concentrations)
Description: as §1, §2, §3, §4, §5, §6, §7, §8, §9

[9] = system: Ps. aeruginosa ATCC 9721; experiment: Antimicrobial activity, agar dilution; format: cell-based; conditions: Pseudomonas aeruginosa, ATCC9721, 20 h, Agar Dextrose dilutions, 37°C, 20 heures, read-out: Activité pharmacologique antimicrobienne (concentrations)
Description: as §1, §2, §3, §4, §5, §6, §7, §8, §9

[10] = system: Bacillus subtilis ATCC 6633; experiment: Antimicrobial activity, agar dilution; format: cell-based; conditions: ATCC6633, 20 h, Agar Dextrose dilutions, 37°C, 20 heures, read-out: Activité pharmacologique antimicrobienne (concentrations)
Description: as §1, §2, §3, §4, §5, §6, §7, §8, §9

[11] = system: Sal. typhi ATCC 6539; experiment: Antimicrobial activity, agar dilution; format: cell-based; conditions: Salmonella enterica, 20 h, read-out: Activité pharmacologique antimicrobienne (concentrations)
Description: as §1, §2, §3, §4, §5, §6, §7, §8, §9

[12] = system: Escherichia coli ATCC 10799; experiment: Antimicrobial activity, agar dilution; format: cell-based; conditions: Escherichia coli, ATCC10799, 20 h, Agar Dextrose dilutions, 37°C, 20 heures, read-out: Activité pharmacologique antimicrobienne (concentrations)
Description: as §1, §2, §3, §4, §5, §6, §7, §8, §9

[13] = system: Ps. aeruginosa ATCC 10145; experiment: Antimicrobial activity, agar dilution; format: cell-based; conditions: Pseudomonas aeruginosa, ATCC10145, 20 h, Agar Dextrose dilutions, 37°C, 20 heures, read-out: Activité pharmacologique antimicrobienne (concentrations)
Description: as §1, §2, §3, §4, §5, §6, §7, §8, §9

[14] = system: Staph. epidermidis ATCC 155-1; experiment: Antimicrobial activity, agar dilution; format: cell-based; conditions: Staphylococcus epidermidis, ATCC155, 20 h, Agar Dextrose dilutions, 37°C, 20 heures, read-out: Activité pharmacologique antimicrobienne (concentrations)
Description: as §1, §2, §3, §4, §5, §6, §7, §8, §9

[15] = system: Bacillus cereus ATCC 11778; experiment: Antimicrobial activity, agar dilution; format: cell-based; conditions: Bacillus cereus, ATCC11778, 20 h, Agar Dextrose dilutions, 37°C, 20 heures, read-out: Activité pharmacologique antimicrobienne (concentrations)
Description: as §1, §2, §3, §4, §5, §6, §7, §8, §9

[16] = system: Ent. aerogenes ATCC 15038; experiment: Antimicrobial activity, agar dilution; format: cell-based, Enterobacter aerogenes; conditions: Klebsiella aerogenes, ATCC15038, 20 h, Agar Dextrose dilutions, 37°C, 20 heures, read-out: Activité pharmacologique antimicrobienne (concentrations)
Description: as §1, §2, §3, §4, §5, §6, §7, §8, §9

[17] = system: Sal. typhimurium ATCC 14028; experiment: Antimicrobial activity, agar dilution; format: cell-based, Salmonella typhimurium; conditions: Salmonella enterica, 20 h, Agar Dextrose dilutions, 37°C, 20 heures, read-out: Activité pharmacologique antimicrobienne (concentrations)
Description: as §1, §2, §3, §4, §5, §6, §7, §8, §9

[18] = Solubility in water and at pH 7.4; format: physicochemical
Description: Un grand nombre des composés de l'invention manifestent une augmentation de la solubilité dans l'eau ainsi que de la solubilité à pH 7,4 lorsqu'on compare avec les composés de référence. L'augmentation de solubilité au pH physiologique peut favoriser l'absorption du produit et la solubilité élevée dans l'eau permet l'administration du composé par voie parentérale.

[19] = system: Staph. aureus ATCC 25178; experiment: Antimicrobial activity, agar dilution; format: cell-based, Staphylococcus aureus; conditions: Staphylococcus aureus, ATCC25178, 20 h, Agar Dextrose dilutions, 37°C, 20 heures, read-out: Activité pharmacologique antimicrobienne (concentrations)
Description: as §1, §2, §3, §4, §5, §6, §7, §8, §9

[20] = system: Serr. marcescens ATCC 13880; experiment: Antimicrobial activity, agar dilution; format: cell-based, Serratia marcescens; conditions: Serratia marcescens, ATCC13880, 20 h, Agar Dextrose dilutions, 37°C, 20 heures, read-out: Activité pharmacologique antimicrobienne (concentrations)
Description: as §1, §2, §3, §4, §5, §6, §7, §8, §9

C[C@H](N)C(=O)N[C@@H]1CN(c2cc3c(cc2F)c(=O)c(C(=O)O)cn3-c2ccc(F)cc2F)[C@H]1C [Exemple 4eA]
2 µg/mL: MIC [1] | MIC [3] | MIC [4] | MIC [11] | MIC [12] | MIC [16] | MIC [17]
> 500 µg/mL: solubility ([18]; pH 7) | solubility ([18]; water)
8 µg/mL: MIC [2] | MIC [9] | MIC [13] | MIC [20]
4 µg/mL: MIC [7]
0.5 µg/mL: MIC [8] | MIC [10]
1 µg/mL: MIC [6] | MIC [15] | MIC [19]
16 µg/mL: MIC [5] | MIC [14]
